Results taken from PubChem BioAssay (NCI).
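The compound was tested at five concentrations on cells cultured in 96-well plates, with a 48-hour exposure period. TGI: total growth inhibition.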

Experiments:
Assay in all cases: NCI-60 cell line screen, 48 h
OVCAR-4 ovarian = tested on: OVCAR-4 ovarian
HL-60(TB) leukemia = tested on: HL-60(TB) leukemia
OVCAR-5 ovarian = tested on: OVCAR-5 ovarian
KM12 colon = tested on: KM12 colon
K-562 leukemia = tested on: K-562 leukemia
HCT-116 colon = tested on: HCT-116 colon
SNB-19 CNS = tested on: SNB-19 CNS
NCI-H226 lung = tested on: NCI-H226 lung
MDA-N = tested on: MDA-N
COLO 205 colon = tested on: COLO 205 colon
HT29 colon = tested on: HT29 colon
NCI/ADR-RES ovarian = tested on: NCI/ADR-RES ovarian
CAKI-1 renal = tested on: CAKI-1 renal
SF-295 CNS = tested on: SF-295 CNS
SK-MEL-5 melanoma = tested on: SK-MEL-5 melanoma
DU-145 prostate = tested on: DU-145 prostate
SK-MEL-2 melanoma = tested on: SK-MEL-2 melanoma
HOP-62 NSCLC = tested on: HOP-62 NSCLC
PC-3 prostate = tested on: PC-3 prostate
IGROV1 ovarian = tested on: IGROV1 ovarian
HCC-2998 colon = tested on: HCC-2998 colon
BT-549 breast = tested on: BT-549 breast
CCRF-CEM leukemia = tested on: CCRF-CEM leukemia
MCF7 breast = tested on: MCF7 breast
SF-539 CNS = tested on: SF-539 CNS
NCI-H460 lung = tested on: NCI-H460 lung
UACC-257 melanoma = tested on: UACC-257 melanoma
MOLT-4 leukemia = tested on: MOLT-4 leukemia
SR leukemia = tested on: SR leukemia
SW-620 colon = tested on: SW-620 colon
ACHN renal = tested on: ACHN renal
HOP-92 NSCLC = tested on: HOP-92 NSCLC
SN12C renal = tested on: SN12C renal
OVCAR-3 ovarian = tested on: OVCAR-3 ovarian
MALME-3M melanoma = tested on: MALME-3M melanoma
RPMI-8226 leukemia = tested on: RPMI-8226 leukemia
A549 NSCLC = tested on: A549 NSCLC
SK-MEL-28 melanoma = tested on: SK-MEL-28 melanoma
TK-10 renal = tested on: TK-10 renal
NCI-H522 lung = tested on: NCI-H522 lung
UO-31 renal = tested on: UO-31 renal
HCT-15 colon = tested on: HCT-15 colon
NCI-H23 lung = tested on: NCI-H23 lung
UACC-62 melanoma = tested on: UACC-62 melanoma
OVCAR-8 ovarian = tested on: OVCAR-8 ovarian
SK-OV-3 ovarian = tested on: SK-OV-3 ovarian
U251 CNS = tested on: U251 CNS
RXF 393 renal = tested on: RXF 393 renal
EKVX NSCLC = tested on: EKVX NSCLC
SF-268 CNS = tested on: SF-268 CNS
786-0 renal = tested on: 786-0 renal
SNB-75 CNS = tested on: SNB-75 CNS
M14 melanoma = tested on: M14 melanoma
T-47D breast = tested on: T-47D breast
MDA-MB-435 = tested on: MDA-MB-435
LOX IMVI melanoma = tested on: LOX IMVI melanoma
MDA-MB-231 breast = tested on: MDA-MB-231 breast
A498 renal = tested on: A498 renal
HS 578T breast = tested on: HS 578T breast

## O=C(N/N=C/c1ccccc1)c1c(-c2cccnc2)cnc2ccccc12
OVCAR-4 ovarian
  TGI: > 100 µM
HL-60(TB) leukemia
  TGI: > 100 µM
OVCAR-5 ovarian
  TGI: > 100 µM
KM12 colon
  TGI: > 100 µM
K-562 leukemia
  TGI: > 100 µM
HCT-116 colon
  TGI: > 100 µM
SNB-19 CNS
  TGI: > 100 µM
NCI-H226 lung
  TGI: > 100 µM
MDA-N
  TGI: > 100 µM
COLO 205 colon
  TGI: > 100 µM
HT29 colon
  TGI: > 100 µM
NCI/ADR-RES ovarian
  TGI: > 100 µM
CAKI-1 renal
  TGI: > 100 µM
SF-295 CNS
  TGI: > 100 µM
SK-MEL-5 melanoma
  TGI: > 100 µM
DU-145 prostate
  TGI: > 100 µM
SK-MEL-2 melanoma
  TGI: > 100 µM
HOP-62 NSCLC
  TGI: > 100 µM
PC-3 prostate
  TGI: > 100 µM
IGROV1 ovarian
  TGI: > 100 µM
HCC-2998 colon
  TGI: > 100 µM
BT-549 breast
  TGI: > 100 µM
CCRF-CEM leukemia
  TGI: > 100 µM
MCF7 breast
  TGI: > 100 µM
SF-539 CNS
  TGI: > 100 µM
NCI-H460 lung
  TGI: > 100 µM
UACC-257 melanoma
  TGI: > 100 µM
MOLT-4 leukemia
  TGI: > 100 µM
SR leukemia
  TGI: > 100 µM
SW-620 colon
  TGI: > 100 µM
ACHN renal
  TGI: > 100 µM
HOP-92 NSCLC
  TGI: > 100 µM
SN12C renal
  TGI: > 100 µM
OVCAR-3 ovarian
  TGI: > 100 µM
MALME-3M melanoma
  TGI: > 100 µM
RPMI-8226 leukemia
  TGI: > 100 µM
A549 NSCLC
  TGI: > 100 µM
SK-MEL-28 melanoma
  TGI: > 100 µM
TK-10 renal
  TGI: > 100 µM
NCI-H522 lung
  TGI: > 100 µM
UO-31 renal
  TGI: > 100 µM
HCT-15 colon
  TGI: > 100 µM
NCI-H23 lung
  TGI: > 100 µM
UACC-62 melanoma
  TGI: > 100 µM
OVCAR-8 ovarian
  TGI: > 100 µM
SK-OV-3 ovarian
  TGI: > 100 µM
U251 CNS
  TGI: > 100 µM
RXF 393 renal
  TGI: > 100 µM
EKVX NSCLC
  TGI: > 100 µM
SF-268 CNS
  TGI: > 100 µM
786-0 renal
  TGI: > 100 µM
SNB-75 CNS
  TGI: > 100 µM
M14 melanoma
  TGI: > 100 µM

## NC(Cc1ccccc1)C(=O)N[C@H]1c2ccsc2/C(=N/O)[C@H]1O (stereo partly drawn)
T-47D breast
  TGI: > 100 µM
OVCAR-4 ovarian
  TGI: > 100 µM
HL-60(TB) leukemia
  TGI: > 100 µM
OVCAR-5 ovarian
  TGI: > 100 µM
K-562 leukemia
  TGI: > 100 µM
HCT-116 colon
  TGI: > 100 µM
NCI-H226 lung
  TGI: > 100 µM
MDA-N
  TGI: > 100 µM
COLO 205 colon
  TGI: > 100 µM
HT29 colon
  TGI: > 100 µM
NCI/ADR-RES ovarian
  TGI: > 100 µM
MDA-MB-435
  TGI: > 100 µM
CAKI-1 renal
  TGI: > 100 µM
SF-295 CNS
  TGI: > 100 µM
SK-MEL-5 melanoma
  TGI: > 100 µM
DU-145 prostate
  TGI: > 100 µM
SK-MEL-2 melanoma
  TGI: > 100 µM
HOP-62 NSCLC
  TGI: > 100 µM
PC-3 prostate
  TGI: > 100 µM
IGROV1 ovarian
  TGI: > 100 µM
LOX IMVI melanoma
  TGI: > 100 µM
HCC-2998 colon
  TGI: > 100 µM
BT-549 breast
  TGI: > 100 µM
CCRF-CEM leukemia
  TGI: > 100 µM
MCF7 breast
  TGI: > 100 µM
SF-539 CNS
  TGI: > 100 µM
NCI-H460 lung
  TGI: > 100 µM
UACC-257 melanoma
  TGI: > 100 µM
SR leukemia
  TGI: > 100 µM
SW-620 colon
  TGI: > 100 µM
HOP-92 NSCLC
  TGI: > 100 µM
SN12C renal
  TGI: > 100 µM
OVCAR-3 ovarian
  TGI: > 100 µM
MALME-3M melanoma
  TGI: > 100 µM
A549 NSCLC
  TGI: > 100 µM
SK-MEL-28 melanoma
  TGI: > 100 µM
MDA-MB-231 breast
  TGI: > 100 µM
TK-10 renal
  TGI: > 100 µM
UO-31 renal
  TGI: > 100 µM
HCT-15 colon
  TGI: > 100 µM
NCI-H23 lung
  TGI: > 100 µM
A498 renal
  TGI: > 100 µM
UACC-62 melanoma
  TGI: > 100 µM
OVCAR-8 ovarian
  TGI: > 100 µM
SK-OV-3 ovarian
  TGI: > 100 µM
U251 CNS
  TGI: > 100 µM
RXF 393 renal
  TGI: > 100 µM
EKVX NSCLC
  TGI: > 100 µM
M14 melanoma
  TGI: > 100 µM

## COc1ccccc1/C=C1\SC(=S)N(/C=C2\C(=O)Oc3ccccc3C2=O)C1=O
OVCAR-4 ovarian
  TGI: > 100 µM
OVCAR-5 ovarian
  TGI: > 100 µM
KM12 colon
  TGI: > 100 µM
K-562 leukemia
  TGI: > 100 µM
HCT-116 colon
  TGI: > 100 µM
SNB-19 CNS
  TGI: > 100 µM
NCI-H226 lung
  TGI: > 100 µM
MDA-N
  TGI: > 100 µM
COLO 205 colon
  TGI: 50.4 µM
HT29 colon
  TGI: > 100 µM
NCI/ADR-RES ovarian
  TGI: > 100 µM
MDA-MB-435
  TGI: 86.5 µM
CAKI-1 renal
  TGI: 3.23 µM
SK-MEL-5 melanoma
  TGI: 51.4 µM
DU-145 prostate
  TGI: > 100 µM
SK-MEL-2 melanoma
  TGI: 59.4 µM
PC-3 prostate
  TGI: > 100 µM
IGROV1 ovarian
  TGI: > 100 µM
LOX IMVI melanoma
  TGI: > 100 µM
BT-549 breast
  TGI: 80.9 µM
CCRF-CEM leukemia
  TGI: > 100 µM
MCF7 breast
  TGI: > 100 µM
SF-539 CNS
  TGI: 85.3 µM
UACC-257 melanoma
  TGI: 62.2 µM
MOLT-4 leukemia
  TGI: > 100 µM
SW-620 colon
  TGI: > 100 µM
HS 578T breast
  TGI: > 100 µM
ACHN renal
  TGI: > 100 µM
HOP-92 NSCLC
  TGI: 64.8 µM
OVCAR-3 ovarian
  TGI: 44.6 µM
MALME-3M melanoma
  TGI: 64 µM
A549 NSCLC
  TGI: > 100 µM
MDA-MB-231 breast
  TGI: 47.7 µM
TK-10 renal
  TGI: 95.9 µM
NCI-H522 lung
  TGI: 95.7 µM
UO-31 renal
  TGI: 83.2 µM
HCT-15 colon
  TGI: > 100 µM
NCI-H23 lung
  TGI: 10.1 µM
UACC-62 melanoma
  TGI: 64 µM
OVCAR-8 ovarian
  TGI: > 100 µM
SK-OV-3 ovarian
  TGI: 76 µM
U251 CNS
  TGI: > 100 µM
EKVX NSCLC
  TGI: 60.2 µM
SF-268 CNS
  TGI: > 100 µM
786-0 renal
  TGI: > 100 µM
SNB-75 CNS
  TGI: 55.6 µM
M14 melanoma
  TGI: > 100 µM

## Cc1ccc(/C=C2\CCCc3ccccc3C2=O)cc1
OVCAR-4 ovarian
  TGI: > 100 µM
HL-60(TB) leukemia
  TGI: 30.7 µM
OVCAR-5 ovarian
  TGI: 29.5 µM
KM12 colon
  TGI: 18.2 µM
K-562 leukemia
  TGI: 53.7 µM
HCT-116 colon
  TGI: 29.1 µM
SNB-19 CNS
  TGI: 89.2 µM
NCI-H226 lung
  TGI: 36.1 µM
MDA-N
  TGI: 4.48 µM
COLO 205 colon
  TGI: 18.9 µM
HT29 colon
  TGI: 18.5 µM
NCI/ADR-RES ovarian
  TGI: 99.3 µM
MDA-MB-435
  TGI: 8.46 µM
CAKI-1 renal
  TGI: > 100 µM
SF-295 CNS
  TGI: 16.6 µM
DU-145 prostate
  TGI: > 100 µM
SK-MEL-2 melanoma
  TGI: 9.07 µM
HOP-62 NSCLC
  TGI: 60.6 µM
PC-3 prostate
  TGI: > 100 µM
IGROV1 ovarian
  TGI: 49.2 µM
LOX IMVI melanoma
  TGI: 30 µM
BT-549 breast
  TGI: 54.1 µM
CCRF-CEM leukemia
  TGI: 36.5 µM
MCF7 breast
  TGI: 47.3 µM
SF-539 CNS
  TGI: 37.5 µM
NCI-H460 lung
  TGI: 32.5 µM
UACC-257 melanoma
  TGI: > 100 µM
MOLT-4 leukemia
  TGI: 52.8 µM
SR leukemia
  TGI: 37.1 µM
SW-620 colon
  TGI: 65.9 µM
HS 578T breast
  TGI: 30.8 µM
ACHN renal
  TGI: > 100 µM
HOP-92 NSCLC
  TGI: 72.4 µM
SN12C renal
  TGI: 39.6 µM
OVCAR-3 ovarian
  TGI: 50.8 µM
MALME-3M melanoma
  TGI: 34.5 µM
RPMI-8226 leukemia
  TGI: 75 µM
A549 NSCLC
  TGI: > 100 µM
SK-MEL-28 melanoma
  TGI: > 100 µM
MDA-MB-231 breast
  TGI: 36.9 µM
TK-10 renal
  TGI: > 100 µM
NCI-H522 lung
  TGI: 27.8 µM
UO-31 renal
  TGI: > 100 µM
HCT-15 colon
  TGI: 27.2 µM
NCI-H23 lung
  TGI: 89.1 µM
UACC-62 melanoma
  TGI: 29.2 µM
OVCAR-8 ovarian
  TGI: > 100 µM
SK-OV-3 ovarian
  TGI: 58 µM
U251 CNS
  TGI: 52.9 µM
EKVX NSCLC
  TGI: 60.9 µM
SF-268 CNS
  TGI: 30.7 µM
786-0 renal
  TGI: > 100 µM
SNB-75 CNS
  TGI: > 100 µM
M14 melanoma
  TGI: 20.4 µM
